We go through nine compounds from patent US7879887B2, “α-amino acid derivatives and medicaments containing the same as an active ingredient” (Nissan Chemical Industries, Ltd., priority 2006, dated 2011).

For test [1], the target named is CDK2/Cyclin E complex (Homo sapiens, UniProt P24941). Nature of the test: In vitro kinase assay, CDK2/Cyclin E complex. It is filed as biochemical. The note with it: recombinant protein (Upstate); read-out: CDK2/cyclinE IC50. How it is done: (§1) Inhibitory activity against Aurora A, CDK1/Cyclin B complex, CDK2/Cyclin E complex and CDK3/Cyclin E complex were measured by in vitro kinase assay using recombinant proteins.

Test [2] concerns the target T1, Aurora A (Homo sapiens, UniProt O14965).
T1 construct: purchased Upstate Inc. 14-511
T1 sequence (O14965 1-403): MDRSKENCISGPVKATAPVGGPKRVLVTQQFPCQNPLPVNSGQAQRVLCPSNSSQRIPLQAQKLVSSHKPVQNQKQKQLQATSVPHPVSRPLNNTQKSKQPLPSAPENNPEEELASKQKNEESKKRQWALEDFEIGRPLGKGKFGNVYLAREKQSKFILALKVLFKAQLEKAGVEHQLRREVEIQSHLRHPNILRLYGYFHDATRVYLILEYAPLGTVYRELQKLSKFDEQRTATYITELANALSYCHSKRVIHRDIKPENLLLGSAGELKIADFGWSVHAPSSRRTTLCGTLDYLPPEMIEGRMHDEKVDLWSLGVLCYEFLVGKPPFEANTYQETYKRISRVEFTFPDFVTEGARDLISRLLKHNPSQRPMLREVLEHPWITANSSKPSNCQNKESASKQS
Nature of the test: In vitro kinase assay, Aurora A. It is filed as biochemical. The note with it: recombinant protein (Upstate). As to the method:
(§2) Inhibitory activity against Aurora A, CDK1/Cyclin B complex, CDK2/Cyclin E complex and CDK3/Cyclin E complex were measured by in vitro kinase assay using recombinant proteins. The assays were carried out by using recombinant proteins (Upstate Inc.) for Aurora A, CDK1/Cyclin B complex, CDK2/Cyclin E complex and CDK3/Cyclin E complex (respective cat. nos. 14-511, 14-450, 14-448 and 14-487), in accordance with the procedure described in the product instructions thereof. The 50% inhibitory concentrations (IC50 values) were calculated by assigning measured values in the case of not containing a test compound to an inhibition of 0%, and assigning measured values in the case of not containing a test compound and enzyme to an inhibition of 100%.

In test [3] the target is T2, recombinant human βARK1 (Homo sapiens, UniProt P25098).
T2 construct: made in house; host or cells: Sf-9 insect cells (baculovirus, pBacPAK8)
T2 sequence (P25098 1-689): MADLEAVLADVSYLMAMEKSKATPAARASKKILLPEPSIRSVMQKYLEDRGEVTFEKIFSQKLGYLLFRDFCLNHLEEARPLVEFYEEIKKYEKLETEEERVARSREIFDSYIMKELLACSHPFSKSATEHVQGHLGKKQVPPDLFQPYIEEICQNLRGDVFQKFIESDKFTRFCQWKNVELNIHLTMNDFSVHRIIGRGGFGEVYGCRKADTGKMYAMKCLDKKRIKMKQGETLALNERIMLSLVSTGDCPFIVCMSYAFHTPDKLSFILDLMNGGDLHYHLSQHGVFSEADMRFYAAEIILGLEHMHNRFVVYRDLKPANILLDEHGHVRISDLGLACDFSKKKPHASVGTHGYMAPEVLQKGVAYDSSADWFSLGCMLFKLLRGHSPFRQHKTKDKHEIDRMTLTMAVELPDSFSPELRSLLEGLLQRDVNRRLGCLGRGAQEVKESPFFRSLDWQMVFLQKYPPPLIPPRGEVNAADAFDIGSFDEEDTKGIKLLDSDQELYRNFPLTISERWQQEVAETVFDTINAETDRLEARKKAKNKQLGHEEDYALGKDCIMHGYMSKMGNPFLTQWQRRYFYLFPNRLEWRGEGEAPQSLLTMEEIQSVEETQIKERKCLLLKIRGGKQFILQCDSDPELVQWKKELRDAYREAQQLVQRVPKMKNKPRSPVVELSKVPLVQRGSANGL
Nature of the test: Inhibitory activity against βARK1 (33P phosphorylation of synthetic peptide). As to conditions: recombinant human βARK1, 60 minutes at room temperature. Format: biochemical. As to the method: Human βARK1 was amplified by PCR based on the base sequence of human βARK1 mRNA registered in GenBank (Accession No. M80776) using a human leukocyte cDNA library (Gibco BRL Cat. No. 10421-022) as a template. The amplified cDNA fragment was inserted into a pBacPAK8 vector (Clontech) to construct a plasmid.
Recombinant human βARK1 was expressed using the BacPAK Baculovirus Expression System (Clontech, Cat. No. K1601-1). 1×10^6 Sf-9 cells were adhered to a 35 mm dish in 2.5 mL of TMN-FH Insect Medium containing 10 vol % FBS (Pharminogen, Cat. No. PM-21227M) and cultured overnight at 27° C. On the following day, the medium was removed and 500 ng of the above plasmid, BacPAK6 viral DNA cleaved with Bsu36I (5 μL) and 1.5 mL of the same medium mixed with 4 μL of Bacfectin were added followed by culturing for 5 hours, further adding 1.5 mL of medium and subsequently culturing for 5 days. […] The culture supernatant after 5 days was recovered and a plaque assay was carried out to isolate single plaques. These were then infected into Sf-9 cells and the resulting culture supernatant was designated as Passage 1 (1−3×10^11 pfu/mL). Passage 1 was added to 3×10^7 Sf-9 cells to a multiplicity of infection (MOI) of 0.1 (pfu/cell), suspension culturing was carried out for 5 days using a spinner flask, and the resulting culture supernatant was designated as Passage 2 (4×10^10 pfu/mL) and used as a viral liquid for large-volume expression.
Sf-9 cells at 3×10^9 cells/200 mL were infected by adding Passage 2 to an MOI of 100 followed by addition of medium to bring to a liquid volume of 2 L and further culturing for 3 days. After recovering the cells by centrifugation and washing three times with PBS, the cells were suspended in 100 mL of Lysis Buffer (20 mmol/L HEPES-HCl (pH 7.2), 5 mmol/L EDTA, 3 mmol/L phenylmethylsulfonyl fluoride (PMSF)). After lysing the cells by ultrasonic treatment at low temperature, the supernatant was recovered by centrifuging (45,000×g, 15 minutes) (sup1). NaCl was added to the resulting supernatant to a final concentration of 250 mmol/L followed by ultracentrifugation (300,000×g, 60 minutes) and using the subsequent supernatant as a crude cell extract (sup2).
Purification was carried out with reference to the literature (Benovic, J. L., Methods Enzymol. 1991; 200: 351-362; Kim, C. M. et al., Receptor 1993; 3: 39-55; Sohlemann, P. et al., FEBS Letters 1993; 324: 59-62). The crude cell extract was accurately brought to a volume of 400 mL with Buffer C (20 mmol/L HEPES-HCl (pH 7.2), 5 mmol/L EDTA, 0.02 vol % Triton X-100) followed by loading onto a 50 mL SP-Sepharose FF (Amersham Pharmacia Biotech) column equilibrated with Buffer C. […] ETA was carried out on each fraction using anti-GRK2 antibody (Santa-Cruz Cat. No. SC-562) and the positive fractions were collected (GRK2=βARK1). This was then diluted three-fold with Buffer C and loaded on a 5 mL HiTrap Heparin column (Amersham Pharmacia Biotech) column equilibrated with Buffer C. After washing the column with Wash Buffer (100 mmol/L NaCl, Buffer C), the column was eluted with an NaCl concentration gradient (100 to 600 mmol/L NaCl for 100 minutes, flow rate: 1 mL/min). The positive fractions as determined by ETA were collected and stored in a freezer at −80° C.
A synthetic peptide having an amino acid sequence of biotinated-[…] was used in accordance with a previous report (Chen, C. Y. et al., J. Biol. Chem. 1993; 268: 7825-7831). This synthetic peptide can also be synthesized with reference to known synthesis methods (for example, Chen, C. Y. et al., J. Biol. Chem. 1993; 268: 7825-7831, Biochemistry 1991; 30: 5118-5125). 2 μl of a DMSO solution in which the test compound was diluted to as to be […] the final concentration was dispensed into a 96-well plate (round bottom) (Falcon 351190) (final concentration: 4 vol % DMSO). […]

Test [4] addresses T3, CDK3/Cyclin E complex (Homo sapiens, UniProt Q00526).
T3 construct: purchased Upstate Inc. 14-487
Nature of the test: In vitro kinase assay, CDK3/Cyclin E complex. It is filed as biochemical. As to conditions: recombinant protein (Upstate); read-out: CDK3/cyclinE IC50. How it is done:
as §1

For test [5], the target named is T4, CDK1/Cyclin B complex (Homo sapiens, UniProt P06493).
T4 construct: purchased Upstate Inc. 14-450
The experiment in a line: In vitro kinase assay, CDK1/Cyclin B complex. Format: biochemical. The note with it: recombinant protein (Upstate). How it is done: as §2

The test system of test [6] is lung carcinoma cell line NCI-H460. The experiment in a line: Cell proliferation inhibitory activity, NCI-H460. It is filed as cell-based. As to conditions: Homo sapiens, 96 h, cells counted 4 days later with Cell Counting Kit-8. As to the method:
(§3) Evaluations were carried out using colon carcinoma cell line SW620 (Cat. No. CCL-227), lung carcinoma cell line NCI-H460 (Cat. No. HTB-177), prostate cancer cell line DU 145 (Cat. No. HTB-81), breast cancer cell line MDA-MB-231 (Cat. No. HTB26) and leukemia cell line KG-1a (Cat. No. CCL-246.1) purchased from ATCC, pancreatic cancer cell line MIAPaCa-2 (Cat. No. CRL-1420) purchased from Dainippon Pharmaceutical, and ovarian cancer cell line IGROV1 received from the Netherland Cancer Institute. The cells were cultured under the conditions recommended by the supplier for each cell line, or with respect to IGROV1, according to the method described in Cancer Res. 59: 4559-4563, 1999. Cells suspended in media were added to solutions containing the test substances at various concentrations followed by culturing in a 5% CO2 incubator at 37° C. The numbers of cells were counted 4 days later with the Cell Counting Kit-8. IC50 values were calculated by assigning measured values in the case of not containing a test substance to an inhibition of 0%, and assigning measured values in the case of not containing a test substance or cells to an inhibition of 100%.

The subject of test [7] is prostate cancer cell line DU 145. The experiment in a line: Cell proliferation inhibitory activity, DU 145. Format: cell-based, human. As to conditions: Homo sapiens, 96 h, cells counted 4 days later with Cell Counting Kit-8. How it is done:
as §3
Background: Formazan colour is commonly taken as a measure of viable cells.

Test [8] concerns breast cancer cell line MDA-MB-231. Nature of the test: Cell proliferation inhibitory activity, MDA-MB-231. The note with it: Homo sapiens, 96 h, cells counted 4 days later with Cell Counting Kit-8. Format: cell-based. How it is done: as §3
For test [9], the system named is colon carcinoma cell line SW620. Nature of the test: Cell proliferation inhibitory activity, SW620. As to conditions: cells counted 4 days later with Cell Counting Kit-8. It is filed as cell-based, human. As to the method:
as §3

The subject of test [10] is leukemia cell line KG-1a. The experiment in a line: Cell proliferation inhibitory activity, KG-1a. It is filed as cell-based. As to conditions: cells counted 4 days later with Cell Counting Kit-8. How it is done:
as §3

In test [11] the test system is ovarian cancer cell line IGROV1. The experiment in a line: Cell proliferation inhibitory activity, IGROV1. Format: cell-based. The note with it: cells counted 4 days later with Cell Counting Kit-8. As to the method: as §3

pIC50: −log10 of the molar value.

T4 sequence (P06493 whole entry): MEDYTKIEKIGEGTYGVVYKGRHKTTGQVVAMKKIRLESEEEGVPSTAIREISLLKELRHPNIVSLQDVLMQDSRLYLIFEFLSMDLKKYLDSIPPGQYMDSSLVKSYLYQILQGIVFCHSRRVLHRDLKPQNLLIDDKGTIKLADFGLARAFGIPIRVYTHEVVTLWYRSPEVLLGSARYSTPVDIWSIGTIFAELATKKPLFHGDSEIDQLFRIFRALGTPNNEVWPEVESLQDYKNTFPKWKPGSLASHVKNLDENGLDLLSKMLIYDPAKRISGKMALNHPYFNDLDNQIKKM
T4 sequence (P14635 whole entry partner): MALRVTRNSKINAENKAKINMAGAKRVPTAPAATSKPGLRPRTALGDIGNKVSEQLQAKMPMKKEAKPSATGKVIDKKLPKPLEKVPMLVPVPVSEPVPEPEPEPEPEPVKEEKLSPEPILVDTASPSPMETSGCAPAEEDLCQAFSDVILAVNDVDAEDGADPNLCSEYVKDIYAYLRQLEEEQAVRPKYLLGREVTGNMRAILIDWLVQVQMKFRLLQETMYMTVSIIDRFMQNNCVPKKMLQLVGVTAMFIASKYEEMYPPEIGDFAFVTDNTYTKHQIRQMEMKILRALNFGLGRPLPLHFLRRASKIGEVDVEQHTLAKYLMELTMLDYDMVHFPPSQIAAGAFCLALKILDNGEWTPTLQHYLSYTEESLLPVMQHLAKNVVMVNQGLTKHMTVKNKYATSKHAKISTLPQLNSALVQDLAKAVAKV
T3 sequence (Q00526 whole entry): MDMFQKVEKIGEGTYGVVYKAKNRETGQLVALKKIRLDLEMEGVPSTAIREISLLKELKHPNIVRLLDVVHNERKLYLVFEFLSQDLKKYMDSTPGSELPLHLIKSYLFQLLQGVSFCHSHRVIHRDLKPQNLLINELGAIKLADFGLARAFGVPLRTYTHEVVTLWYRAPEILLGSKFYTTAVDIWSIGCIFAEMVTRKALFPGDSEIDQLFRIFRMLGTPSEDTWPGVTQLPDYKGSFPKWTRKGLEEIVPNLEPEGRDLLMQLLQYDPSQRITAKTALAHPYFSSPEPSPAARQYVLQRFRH
T3 sequence (P24864 whole entry partner): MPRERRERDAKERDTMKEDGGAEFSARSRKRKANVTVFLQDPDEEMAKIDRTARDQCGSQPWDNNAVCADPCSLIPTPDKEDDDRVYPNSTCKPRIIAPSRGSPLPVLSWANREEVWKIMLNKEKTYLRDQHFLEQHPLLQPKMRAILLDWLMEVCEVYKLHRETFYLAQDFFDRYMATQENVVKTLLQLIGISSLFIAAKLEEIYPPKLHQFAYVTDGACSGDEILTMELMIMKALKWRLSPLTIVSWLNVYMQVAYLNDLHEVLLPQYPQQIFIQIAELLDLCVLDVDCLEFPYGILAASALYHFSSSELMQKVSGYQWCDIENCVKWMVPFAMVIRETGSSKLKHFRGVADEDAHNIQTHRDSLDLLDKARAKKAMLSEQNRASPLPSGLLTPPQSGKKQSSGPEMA

With `CC(C)(Nc1ccc(Cl)c(C(=O)NCCC(=O)O)c1)C(=O)Nc1nc2c(C(F)(F)F)cc3[nH]ncc3c2s1` [compound 139], the pIC50 in test [1] is 6.77; in test [2], 6.97; in [3] it was 8.10; in test [4] it was 7.15; in [5] it was 6.62.
For the compound `CNC(=O)Nc1cc(NC(C)(C)C(=O)Nc2nc3c(C(F)(F)F)cc4[nH]ncc4c3s2)ccc1Cl` [compound 90], the pIC50 in test [6] is 5.60; in [7], 5.72; in [1], 6.80; in test [8], 5.36; in [9] (Homo sapiens, SW-620, 96 h), 5.89; in test [4], 7.15. Moreover, the pIC50 in [5] is 6.44.
Turning to `O=C(Nc1nc2ccc3[nH]ncc3c2s1)C1(Nc2ccc(Cl)cc2)CCC1` [compound 114], the pIC50 in test [1] was 7.08; in [8], 5.33; in test [9] (Homo sapiens, SW-620, 96 h) it was 6.15; in test [4], 6.76; in [10] (Homo sapiens, 96 h), over 7.00.
Regarding `CC(C)(Nc1ccc(Cl)c(NS(C)(=O)=O)c1)C(=O)Nc1nc2c(C(F)(F)F)cc3[nH]ncc3c2s1` [compound 84], the pIC50 in test [6] was 5.49; in test [7], 5.47; in test [1], 7.36; in test [8], 5.32; in [9] (Homo sapiens, SW-620, 96 h) it was 5.80; in test [2], 6.61. In addition, the pIC50 was 7.36 in [4]; 6.70 in test [10] (Homo sapiens, 96 h); 6.69 in test [5].
As for `CC(=O)Nc1cc(NC(C(=O)Nc2nc3c(C(F)(F)F)cc4[nH]ncc4c3s2)c2ccccc2)ccc1Cl` (stereo not shown) [compound 30], the pIC50 was 5.39 in test [6]; 5.57 in [7]; 6.76 in test [1]; 5.74 in test [9] (Homo sapiens, SW-620, 96 h); 8.01 in test [3]; 6.89 in test [4].
Turning to `COc1cccc(NCC(=O)Nc2nc3ccc4[nH]ncc4c3s2)c1` [compound 1], the pIC50 was 5.80 in [9], over 7.00 in [10] and 5.34 in test [11].
In the case of `CCC(=O)Nc1cc(NC(C)(C)C(=O)Nc2nc3c(C(F)(F)F)cc4[nH]ncc4c3s2)ccc1Cl` [compound 56], the pIC50 in test [6] was 5.60; in [7], 5.60; in [1], 6.41; in [9] (Homo sapiens, SW-620, 96 h), 5.96; in test [3], 8.49; in test [4], 6.52. Moreover, in test [10] (Homo sapiens, 96 h), the pIC50 was 6.40.
Consider `CC(C)(Nc1ccc(Cl)c(-n2cc[nH]c2=O)c1)C(=O)Nc1nc2c(C(F)(F)F)cc3[nH]ncc3c2s1` [compound 97], for which the pIC50 in test [3] is 7.92; in [4], 6.55.
Consider `CC(C)(Nc1ccc(Cl)c(C(=O)NCC(=O)O)c1)C(=O)Nc1nc2c(C(F)(F)F)cc3[nH]ncc3c2s1` [compound 145], for which the pIC50 is 6.71 in test [1]; 7.12 in [2]; 8.11 in test [3]; 6.87 in [4]; 6.59 in test [5].
